Key:
E. coli ATCC 25922 = type: cell-based; details: E. coli 25922, Table 6
How it was run: (§1)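 Broth microdilution followed CLSI VET01-S2, with peptides serially diluted to in-assay concentrations of 50 μM to 0.05 μM. A 0.5 McFarland inoculum diluted 1:250 in Mueller-Hinton Broth was incubated with peptide for 18-20 hours. MIC was read visually as the first well without visible growth.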

[1] = tested on: MRSP (Methicillin-Resistant Staphylococcus pseudintermedius); test: MIC against selected strains of MRSP; type: cell-based; set-up: key to MIC MRSP 72192 / MIC MRSP 76923 / MR 71994 / Mr 88493 / MR 72035 / MR 72192 / MR 76923 / MR 79882 / MR 80279 / MR 81926 / MR 86002 / MR 87665: MIC in μM (visual, first well with no growth); details: for MR 71994: MRSP strain 71994, Table 6; for MR 72035: MRSP strain 72035, Table 6; for MR 72192: MRSP strain 72192, Table 6; for MR 76923: MRSP strain 76923, Table 6; for MR 79882: MRSP strain 79882, Table 6; for MR 80279: MRSP strain 80279, Table 6; for MR 81926: MRSP strain 81926, Table 6; for MR 86002: MRSP strain 86002, Table 6; for MR 87665: MRSP strain 87665, Table 6; for Mr 88493: MRSP strain 88493, Table 6
How it was run: (§2)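 MIC read by eye as the first well showing no growth after 18–20 h incubation. Cultures at 0.5 McFarland were diluted 1:250 in Mueller-Hinton broth and exposed to peptide over 50 μM–0.05 μM in the assay, per CLSI VET01-S2 microbroth method.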

cRBC = type: cell-based, canine
How it was run: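 Percent lysis, measured by absorbance at 405 nm, used 1% Triton X-100 as full effect and phosphate buffer as zero. Peptides spanned 50 µM–0.05 µM and were held with plasma-depleted washed erythrocytes at 37 °C for 1 h.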

[2] = tested on: Canine-derived epithelial keratinocyte (CPEK) cells; type: cell-based
How it was run: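 Viability was read by CellTiter-Glo luminescence after overnight exposure (37 °C, 5% CO2) of canine keratinocytes to a peptide range of 50–0.05 μM. Percent effect used phosphate buffer as the zero control and 0.1% Triton X-100 as the full-effect control.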

[3] = tested on: MSSP (Methicillin-Susceptible Staphylococcus pseudintermedius); test: MIC against selected strains of MSSP; type: cell-based; set-up: MIC MSSP 49051 / MIC MSSP 81923 / MIC MSSP 84250 / Effect on MSSP 86000 / Effect on MSSP 72036 / Effect on MSSP 78032: unit not given beside the values; Effect on MSSP 71990 / Effect on MSSP 86001 / Effect on MSSP 72191 / Effect on MSSP 76986 / Effect on MSSP 77378 / Effect on MSSP 81923 / Effect on MSSP 84250 / Effect on MSSP 84658: unit: µM; details: for SP 49051: S. pseudintermedius 49051, Table 6; for Effect on MSSP 71990: strain 71990, Table 5; for Effect on MSSP 72036: strain 72036, Table 5; for Effect on MSSP 72191: strain 72191, Table 5; for Effect on MSSP 76986: strain 76986, Table 5; for Effect on MSSP 77378: strain 77378, Table 5; for Effect on MSSP 78032: strain 78032, Table 5; for Effect on MSSP 81923: strain 81923, Table 5; for Effect on MSSP 84250: strain 84250, Table 5; for Effect on MSSP 84658: strain 84658, Table 5; for Effect on MSSP 86000: strain 86000, Table 5; for Effect on MSSP 86001: strain 86001, Table 5
How it was run: as §2

S. aureus ATCC 29213 = type: cell-based; set-up: key to SA 29213: MIC in μM (lowest conc. with no visible growth); details: S. aureus 29213, Table 6
How it was run: as §1

Row | Substance | EC 25922 (E. coli ATCC 25922) [µM] | MR 71994 [1] | MR 72035 [1] | MR 72192 [1] | MR 76923 [1] | MR 79882 [1] | MR 80279 [1] | MR 81926 [1] | MR 86002 [1] | MR 87665 [1] | Mr 88493 [1] | cRBC (50 μM) (cRBC) | CPEK (50 μM) [2] | SP 49051 [3] | Effect on MSSP 71990 [3] | Effect on MSSP 72036 [3] | Effect on MSSP 72191 [3] | Effect on MSSP 76986 [3] | Effect on MSSP 77378 [3] | Effect on MSSP 78032 [3] | further results
1 | 107 (KWCFRVCWRGICYRRCRD; Artificial Antimicrobial peptide) [compound 107] | 3.1 | 1.6 | 3.1 | 1.6 | 1.6 | 0.8 | 1.6 | 1.6 | 1.6 | 1.6 | 1.6 | 101.8 | 26.3 | 1.6 | 1.6 | 1.6 | 1.6 | 1.6 | 1.6 | 1.6 | Effect on MSSP 81923 [3]: 1.6; Effect on MSSP 84250 [3]: 1.6; Effect on MSSP 84658 [3]: 1.6; Effect on MSSP 86000 [3]: 1.6; Effect on MSSP 86001 [3]: 1.6; SA 29213 (S. aureus ATCC 29213): 3.1
2 | 108 (KWCFRVCYGGICYRRCRD; Artificial Antimicrobial peptide) [compound 108] | 0.8 | 3.1 | 3.1 | 3.1 | 3.1 | 3.1 | 3.1 | 3.1 | 3.1 | 3.1 | 3.1 | 27.7 | 9.6 | 3.1 | 3.1 | 3.1 | 3.1 | 3.1 | 3.1 | 3.1 | Effect on MSSP 81923 [3]: 3.1; Effect on MSSP 84250 [3]: 3.1; Effect on MSSP 84658 [3]: 3.1; Effect on MSSP 86000 [3]: 3.1; Effect on MSSP 86001 [3]: 3.1; SA 29213 (S. aureus ATCC 29213): 12.5
3 | 109 (KWCFRVCYRRICYRRCRD; Artificial Antimicrobial peptide) [compound 109] | 1.6 | 1.6 | 1.6 | 1.6 | 1.6 | 0.8 | 1.6 | 1.6 | 1.6 | 1.6 | 1.6 | 99.8 | 19.2 | 1.6 | 1.6 | 1.6 | 1.6 | 1.6 | 1.6 | 1.6 | Effect on MSSP 81923 [3]: 1.6; Effect on MSSP 84250 [3]: 1.6; Effect on MSSP 84658 [3]: 1.6; Effect on MSSP 86000 [3]: 1.6; Effect on MSSP 86001 [3]: 1.6; SA 29213 (S. aureus ATCC 29213): 3.1
4 | 110 (KWCFRVCYRGYCYRRCRD; Artificial Antimicrobial peptide) [compound 110] | 1.6 | 3.1 | 3.1 | 3.1 | 3.1 | 1.6 | 1.6 | 3.1 | 3.1 | 3.1 | 3.1 | 46.3 | 10.7 | 3.1 | 1.6 | 3.1 | 3.1 | 1.6 | 1.6 | 1.6 | Effect on MSSP 81923 [3]: 3.1; Effect on MSSP 84250 [3]: 3.1; Effect on MSSP 84658 [3]: 3.1; Effect on MSSP 86000 [3]: 3.1; Effect on MSSP 86001 [3]: 3.1; SA 29213 (S. aureus ATCC 29213): 6.2

— patent publication US11352396B2, “Antimicrobial peptides and methods of using same” (Zoetis Services LLC, priority 2017, dated 2022)
